As usually defined, the IC50 is the concentration that inhibits the measured activity by half.

This test relates to human leukocytes (LTB4 production, calcium ionophore stimulated). Put plainly: Human Leukocyte LTB4 Inhibition Assay. In kind it is cell-based. The settings on record: Leukocyte, LTB4 by ELISA, read-out: LTB4 HLA IC50. In a few lines:
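Human peripheral leukocytes (1.25×10^5 cells/ml) were isolated by dextran sedimentation and hypotonic RBC lysis. They were preincubated with drug 5 min at 37 °C, then stimulated 30 min at 37 °C with calcium ionophore […] (working solution 1.25 mM). Supernatant LTB4 was measured by ELISA. IC50 versus vehicle came from nonlinear regression of % inhibition against log concentration.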
On the technique in general: In an ELISA, binding on a coated surface is turned into a signal by an enzyme label.
Turning to `CCOC(=O)c1cc2cc(Cn3cc(C(CC)(OC(=O)c4ccc([N+](=O)[O-])cc4)C(F)(F)F)nn3)ccn2c1-c1ccc(OC)nc1` (single isomer, unassigned) [Compound 1-85, 3-(6-Methoxy-pyridin-3-yl)-7-{4-[1-(4-nitro-benzoyloxy)-1-trifluoromethyl-propyl]-[1,2,3]triazol-1-ylmethyl}-indolizine-2-carboxylic acid ethyl ester], the IC50 fell in the range of 300 to 1000 nM.
Regarding `CCOC(=O)c1cc2cc(Cn3cc(C(CC)(OC(=O)c4ccc([N+](=O)[O-])cc4)C(F)(F)F)nn3)ccn2c1` (single isomer, unassigned) [Compound 1-86, 7-{4-[1-(4-Nitro-benzoyloxy)-1-trifluoromethyl-propyl]-[1,2,3]triazol-1-ylmethyl}-indolizine-2-carboxylic acid ethyl ester], the IC50 is less than 300 nM.
In the case of `CCC(O)(c1cn(Cc2ccn3c(-c4ccc(OC)nc4)c(C#N)cc3c2)nn1)C(F)(F)F` (stereo not shown) [Compound 1-57, 7-[4-(1-Hydroxy-1-trifluoromethyl-propyl)-[1,2,3]triazol-1-ylmethyl]-3-(6-methoxy-pyridin-3-yl)-indolizine-2-carbonitrile], the IC50 was less than 300 nM.
The result for `CCOC(=O)c1nc2cc(CNc3nnc(C(O)(CC)C(F)(F)F)o3)ccn2c1-c1ccccc1` (stereo not shown) [Compound 1-12, 7-{[5-(1-Hydroxy-1-trifluoromethyl-propyl)-[1,3,4]oxadiazol-2-ylamino]-methyl}-3-phenyl-imidazo[1,2-a]pyridine-2-carboxylic acid ethyl ester] reads less than 300 nM.
In the case of `CCC(O)(c1cn(Cc2ccn3c(-c4ccc(F)cc4)c(C(=O)N(C)OC)cc3c2)nn1)C(F)(F)F` (stereo not shown) [Compound 1-51, 3-(4-Fluoro-phenyl)-7-[4-(1-hydroxy-1-trifluoromethyl-propyl)-[1,2,3]triazol-1-ylmethyl]-indolizine-2-carboxylic acid methoxy-methyl-amide], the IC50 was less than 300 nM.
In the case of `CCC(O)(c1cnc(Sc2ccn3cc(C(=O)O)cc3c2)s1)C(F)(F)F` (stereo not shown) [Compound 1-2, 7-[5-(1-Hydroxy-1-trifluoromethyl-propyl)-thiazol-2-ylsulfanyl]-indolizine-2-carboxylic acid], the IC50 is greater than 1000 nM.
Consider `CCC(O)(c1cn(Cc2ccn3c(-c4ccc(F)cc4)c(C(N)=O)nc3c2)nn1)C(F)(F)F` (stereo not shown) [Compound 1-14, 3-(4-Fluoro-phenyl)-7-[4-(1-hydroxy-1-trifluoromethyl-propyl)-[1,2,3]triazol-1-ylmethyl]-imidazo[1,2-a]pyridine-2-carboxylic acid amide], for which the IC50 was 300 to 1000 nM.
On to `CCC(O)(c1nnc(NCc2ccn3c(-c4ccc(F)cc4)c(C(N)=O)cc3c2)o1)C(F)(F)F` (stereo not shown) [Compound 1-19, 3-(4-Fluoro-phenyl)-7-{[5-(1-hydroxy-1-trifluoromethyl-propyl)-[1,3,4]oxadiazol-2-ylamino]-methyl}-indolizine-2-carboxylic acid amide], for which the IC50 was less than 300 nM.
For the compound `CCOC(=O)c1cc2cc(Cn3cc(C(O)(CC)C(F)(F)F)nn3)ccn2c1-c1ccc(C)nc1` (stereo not shown) [Compound 1-69, 7-[4-(1-Hydroxy-1-trifluoromethyl-propyl)-[1,2,3]triazol-1-ylmethyl]-3-(6-methyl-pyridin-3-yl)-indolizine-2-carboxylic acid ethyl ester], the IC50 is less than 300 nM.
For the compound `CCC(O)(c1cn(Cc2ccn3c(-c4cccnc4)c(C(N)=O)cc3c2)nn1)C(F)(F)F` (stereo not shown) [Compound 1-25, 7-[4-(1-Hydroxy-1-trifluoromethyl-propyl)-[1,2,3]triazol-1-ylmethyl]-3-pyridin-3-yl-indolizine-2-carboxylic acid amide], the IC50 was greater than 1000 nM.
For the compound `CCC(O)(c1cn(Cc2ccn3c(-c4ccnc(C)c4)c(C#N)cc3c2)nn1)C(F)(F)F` (stereo not shown) [Compound 1-65, 7-[4-(1-Hydroxy-1-trifluoromethyl-propyl)-[1,2,3]triazol-1-ylmethyl]-3-(2-methyl-pyridin-4-yl)-indolizine-2-carbonitrile], the IC50 is less than 300 nM.
For the compound `CCC(O)(c1cn(Cc2ccn3c(-c4ccc(F)cc4)c(/C=C/C(=O)OC)cc3c2)nn1)C(F)(F)F` (stereo not shown) [Compound 1-39, (E)-3-{3-(4-Fluoro-phenyl)-7-[4-(1-hydroxy-1-trifluoromethyl-propyl)-[1,2,3]triazol-1-ylmethyl]-indolizin-2-yl}-acrylic acid methyl ester], the IC50 is less than 300 nM.
The result for `CCC(O)(c1cn(Cc2ccn3c(C(C)=O)c(C(=O)OC)cc3c2)nn1)C(F)(F)F` (stereo not shown) [Compound 1-66, 3-Acetyl-7-[4-(1-hydroxy-1-trifluoromethyl-propyl)-[1,2,3]triazol-1-ylmethyl]-indolizine-2-carboxylic acid methyl ester] reads less than 300 nM; that for `CCOC(=O)c1c(C(=O)C(F)(F)F)c2cc(Cn3cc(C(CC)(OC(=O)c4ccc([N+](=O)[O-])cc4)C(F)(F)F)nn3)ccn2c1-c1ccc(OC)nc1` (single isomer, unassigned) [Compound 1-84, 3-(6-Methoxy-pyridin-3-yl)-7-{4-[1-(4-nitro-benzoyloxy)-1-trifluoromethyl-propyl]-[1,2,3]triazol-1-ylmethyl}-1-(2,2,2-trifluoro-acetyl)-indolizine-2-carboxylic acid ethyl ester], 300 to 1000 nM.
Regarding `CCC(O)(c1nnc(NCc2ccn3c(-c4ccc(F)cc4)c(C(N)=O)cc3c2)o1)C(F)(F)F` (single isomer, unassigned) [Compound 1-20, 3-(4-Fluoro-phenyl)-7-{[5-(1-hydroxy-1-trifluoromethyl-propyl)-[1,3,4]oxadiazol-2-ylamino]-methyl}-indolizine-2-carboxylic acid amide], the IC50 was less than 300 nM.
Turning to `CCC(O)(c1cn(Cc2ccn3c(-c4ccc(F)cc4)c(CNCCC(=O)O)cc3c2)nn1)C(F)(F)F` (stereo not shown) [Compound 1-40, 3-({3-(4-Fluoro-phenyl)-7-[4-(1-hydroxy-1-trifluoromethyl-propyl)-[1,2,3]triazol-1-ylmethyl]-indolizin-2-ylmethyl}-amino)-propionic acid], the IC50 was greater than 1000 nM.
For the compound `CCC(OC)(c1cn(Cc2ccn3c(-c4ccc(F)cc4)c(COC)cc3c2)nn1)C(F)(F)F` (stereo not shown) [Compound 1-45, 3-(4-Fluoro-phenyl)-2-methoxymethyl-7-[4-(1-methoxy-1-trifluoromethyl-propyl)-[1,2,3]triazol-1-ylmethyl]-indolizine], the concentration for half-maximal inhibition (IC50) was less than 300 nM.
Consider `CCC(O)(c1cn(Cc2ccn3c(-c4ccc(OC)nc4)c(C(N)=O)cc3c2)nn1)C(F)(F)F` (stereo not shown) [Compound 1-35, 7-[4-(1-Hydroxy-1-trifluoromethyl-propyl)-[1,2,3]triazol-1-ylmethyl]-3-(6-methoxy-pyridin-3-yl)-indolizine-2-carboxylic acid amide], for which the IC50 fell in the range of 300 to 1000 nM.
For `CCC(O)(c1cn(Cc2ccn3c(-c4cccc(S(C)(=O)=O)c4)c(C#N)cc3c2)nn1)C(F)(F)F` (stereo not shown) [Compound 1-49, 7-[4-(1-Hydroxy-1-trifluoromethyl-propyl)-[1,2,3]triazol-1-ylmethyl]-3-(3-methanesulfonyl-phenyl)-indolizine-2-carbonitrile], the IC50 fell in the range of 300 to 1000 nM.
Regarding `CCC(O)(c1cn(Cc2ccn3c(-c4ccc(F)nc4)c(C#N)cc3c2)nn1)C(F)(F)F` (stereo not shown) [Compound 1-32, 3-(6-Fluoro-pyridin-3-yl)-7-[4-(1-hydroxy-1-trifluoromethyl-propyl)-[1,2,3]triazol-1-ylmethyl]-indolizine-2-carbonitrile], the IC50 is less than 300 nM.
As to `CCOC(=O)c1c(Br)c2cc(CNc3nnc(C(O)(CC)C(F)(F)F)o3)ccn2c1-c1ccc(F)cc1` (stereo not shown) [Compound 1-15, 1-Bromo-3-(4-fluoro-phenyl)-7-{[5-(1-hydroxy-1-trifluoromethyl-propyl)-[1,3,4]oxadiazol-2-ylamino]-methyl}-indolizine-2-carboxylic acid ethyl ester], the IC50 was less than 300 nM.
The result for `CCOC(=O)c1cc2cc(Cn3cc(C(O)(CC)C(F)(F)F)nn3)ccn2c1-c1cccc(S(C)(=O)=O)c1` (stereo not shown) [Compound 1-47, 7-[4-(1-Hydroxy-1-trifluoromethyl-propyl)-[1,2,3]triazol-1-ylmethyl]-3-(3-methanesulfonyl-phenyl)-indolizine-2-carboxylic acid ethyl ester] reads less than 300 nM.
For `CCC(O)(c1cn(Cc2ccn3c(-c4ccc(F)nc4)c(C(N)=O)cc3c2)nn1)C(F)(F)F` (stereo not shown) [Compound 1-31, 3-(6-Fluoro-pyridin-3-yl)-7-[4-(1-hydroxy-1-trifluoromethyl-propyl)-[1,2,3]triazol-1-ylmethyl]-indolizine-2-carboxylic acid amide], the IC50 is greater than 1000 nM.
Take `CCC(O)(c1cn(Cc2ccn3c(-c4ccc(F)cc4)c(CO)cc3c2)nn1)C(F)(F)F` (stereo not shown) [Compound 1-30, 1,1,1-Trifluoro-2-{1-[3-(4-fluoro-phenyl)-2-hydroxymethyl-indolizin-7-ylmethyl]-1H-[1,2,3]triazol-4-yl}-butan-2-ol]: the IC50 is less than 300 nM.
Regarding `CCOC(=O)c1cc2cc(Cn3cc(C(O)(CC)C(F)(F)F)nn3)ccn2c1-c1ccc(F)cc1` (stereo not shown) [Compound 1-4, 3-(4-Fluoro-phenyl)-7-[4-(1-hydroxy-1-trifluoromethyl-propyl)-[1,2,3]triazol-1-ylmethyl]-indolizine-2-carboxylic acid ethyl ester], the 50% inhibitory concentration (IC50) is less than 300 nM.

For the origin of these results see patent publication US20130005721A1, “INDOLIZINE INHIBITORS OF 5-LIPOXYGENASE” (PANMIRA PHARMACEUTICALS, LLC, priority 2009, published 2013).
